Converted amounts (≈) assume the structure as drawn.
How the values were obtained:
Caco-2 permeability = assay type: in vitro ADME; settings: human; for Papp A→B at 90 min, 10 μM / Papp B→A at 90 min, 10 μM: pH 7.4, Caco-2, 10 μM; for Papp A→B at 90 min, 10 μM: apical-to-basolateral; for Papp B→A at 90 min, 10 μM: basolateral-to-apical
Description: Caco-2 cells were cultured in 75 cm2 flasks to 80-90% confluence in a humidified atmosphere at 37 °C and 5% CO2. Cells were detached with Trypsin/EDTA solution and resuspended in the complete medium containing DMEM high glucose (4500 mg/L) with L-glutamine (4 mM) supplemented with 10% […]
heat-inactivated Fetal Bovine Serum, 1% non-essential amino acids, and 730 nM puromycin and seeded at a density 5 × 10^5 cells in 75 cm2 flask. After 5 days, cells were trypsinized and resuspended in the complete medium to a final concentration of 600 × 10^3 cells/mL. 400 μL of the cell suspension was added to each well of the HTS 24-Multiwell Insert System and 25 mL of prewarmed complete medium was added to the feeder tray. Caco-2 cells were incubated in Multiwell Insert System for 6-10 days before the transport experiments. The medium in the filter plate and feeder tray was refreshed every other day. The 24-well insert plate was removed from its feeder plate and placed in a new sterile 24-well transport analysis plate. The inserts were washed with PBS after medium aspiration. Ketoprofen, atenolol, and digoxin were used as reference compounds.
To determine the rate of compounds transport in apical (A)-to-basolateral (B) direction, 300 μL of the test compound dissolved in transport buffer (Hanks’ BSS (9.5 g/L) and NaHCO3 (0.35 g/L) with MgSO4 to final concentration 0.81 mM, CaCl2 to final concentration 1.26 mM, HEPES to final concentration 25 mM, pH adjusted to 7.4) was added into the filter wells; 1000 μL of transport buffer was added to transport analysis plate wells. To determine transport rates in the basolateral (B)-to-apical (A) direction, 1000 μL of the test compound solutions was added into the wells of the transport analysis plate, the wells in the filter plate were filled with 300 μL of buffer. The final amount of reference and test compounds was 10 μM. The plates were incubated for 90 min at 37 °C under continuous shaking at 100 rpm. 75 μL aliquots were taken from the donor and receiver compartments for LC-MS/MS analysis. All samples were mixed with 2 volumes of acetonitrile followed by protein sedimentation by centrifuging at 10000 rpm for 10 min. Supernatants were analyzed using the HPLC system coupled with a tandem mass spectrometer. […]
The GIT model was simulated using the GIT-0 phospholipid mix.
Verapamil, quinidine (high permeability), and ranitidine (low permeability) were used as reference […]
All compounds were tested in triplicate. Prisma HT buffer (pH 7.4) containing 50 μM test compounds (0.5% DMSO) was added to the Donor Plate wells. Acceptor Sink Buffer was added to each well of the Acceptor Plate. Incubation was done at room temperature for 4 hours without stirring. After

LPS-stimulated PBMCs = assay: Cytokine secretion, Cytometric Bead Array; assay type: cell-based, human; settings: for dose-dependent effects on cytokine release from LPS-stimulated PBMCs: dose–response curves (Figure S12)
Description: PBMCs (1.5 × 10^6/mL) were plated in culture media in 96-well round-bottom plates. After a 60 min treatment with compounds at 37 °C and 5% CO2, cells were stimulated with LPS (Escherichia coli, O111:B4, 1 μg/mL, Sigma) for 24 h. Supernatants were then collected and analyzed for cytokine release by Human Inflammatory Cytokine Cytometric Bead Array (BD Biosciences, New Jersey, USA).

[1] = Metabolic stability in human liver microsomes; assay type: in vitro ADME; settings: for half-life at 2 μM / k el at 2 μM / microsomal CLint at 2 μM: pH 7.4, human liver microsomes, 40 min
Description: Metabolic stability in human liver microsomes
Microsomal incubations were carried out in 96-well plates in 5 aliquots of 30 μL each (one for each time point). Liver microsomal incubation medium comprised of phosphate buffer (100 mM, pH 7.4), MgCl2 (3.3 mM), NADPН (3 mM), glucose-6-phosphate (5.3 mM), glucose-6-phosphate dehydrogenase (0.67 units/ml) with 0.42 mg of liver microsomal protein per mL. In the control reactions, the NADPH-cofactor system was substituted with phosphate buffer. Test compounds (2 μM, final acetonitrile concentration 1.6 %) were incubated with microsomes at 37 °C, shaking at 100 rpm. Five time points over 40 min were analyzed. The reactions were stopped by adding 4 volumes of acetonitrile with internal standard to incubation aliquots, followed by protein sedimentation by centrifuging at 5500 rpm for 5 min. Each reaction was performed in duplicates. Supernatants were analyzed using the HPLC system coupled with a tandem mass spectrometer. […]

Kinetic solubility = assay type: physicochemical; settings: 25 °C; for solubility at 2 h / solubility kinetic at 2 h: phosphate-buffered saline, pH 7.4, aqueous buffer, kinetic from dmso stock; for solubility at 2 h: read-out: PBS solubility, pH 7.4; for solubility kinetic at 2 h: CSV column, unit inferred
Description: Briefly, using a 20 mM (10 mM for 5l) stock solution of the compound in 100% DMSO, dilutions were prepared to a theoretical concentration of 400 μM (200 μM for 5l) in duplicates in phosphate-buffered saline pH 7.4 (138 mM NaCl, 2.7 mM KCl, 10 mM K-phosphate) with 2% final DMSO. The experimental compound dilutions in PBS were further allowed to equilibrate at 25 °C on a thermostatic shaker for two hours and then filtered through HTS filter plates using a vacuum manifold. The filtrates of test compounds were diluted 2-fold with acetonitrile with 2% DMSO before measuring.
In parallel, using a 20 mM (10 mM for 5l) stock solution of the compound in 100% DMSO dilutions were prepared to theoretical concentrations of 0 μM (blank), […] (0 μM (blank), 10 μM, 25 50 μM, and 100 μM,μM for 5l) in 50% acetonitrile/PBS with 2% final DMSO to generate calibration curves. Ondansetron was used as a reference compound to control proper assay performance. 200 μL of each sample was transferred to a 96-well plate and measured in the 230-550 nm range with a 5 nm step. […]

[2] = kinetic solubility, 2% DMSO, two hours, theoretical concentration 400 μM (200 μM for 5l)

efflux ratio at 90 min, 10 μM (Caco-2 permeability; Caco-2, pH 7.4, quotient of Papp(BA) to Papp(AB))	Papp A→B at 90 min, 10 μM (Caco-2 permeability) [×10⁻⁶ cm/s]	Papp B→A at 90 min, 10 μM (Caco-2 permeability) [×10⁻⁶ cm/s]	microsomal stability ([1]; compared with bortezomib)	half-life at 2 μM [1] [min]	k el at 2 μM [1] [s⁻¹]	microsomal CLint at 2 μM [1] [µL/min/mg]	solubility at 2 h (Kinetic solubility; [2]) [µM]	solubility kinetic at 2 h (Kinetic solubility) [µM]	PBS solubility, pH 7.4 (Kinetic solubility; [2]) [μM]	Compound	Effect on secretion of cytokines in LPS-stimulated PBMCs (LPS-stimulated PBMCs; 250 nM, 1 h pretreatment, LPS 1 μg/mL, 24 h, IL-1, IL-6, IL-8, IL-10, TNF-α)	dose-dependent effects on cytokine release from LPS-stimulated PBMCs (LPS-stimulated PBMCs)
8.4	2 ± 0.2	17.1 ± 1	higher microsomal stability	39.4	0.0003	42	≥ 200	> 200		O=C(N[C@@H](Cc1ccccc1)C(=O)N[C@H](B(O)O)C1CCCC1)c1cnccn1 [5l, ((R)-Cyclopentyl((S)-3-phenyl-2-(pyrazine-2-carboxamido)propanamido)methyl)boronic Acid]	strongest effects	very comparable effects
	2.8 ± 0.1	20.7 ± 0.1		34.5	0.000333	48	399 (≈ 153 µg/mL)	399 (≈ 153 µg/mL)	> 200	CC(C)C[C@H](NC(=O)[C@H](Cc1ccccc1)NC(=O)c1cnccn1)B(O)O [bortezomib, reference compound]		very comparable effects

Source: publication PMC12751025, “α‑Aminoboronic Acid Moieties in Boro Dipeptides Modulate Proteasome Subunit Selectivity and Provide Access to Compounds with Potent Anticancer and Anti-Inflammatory Activity” (Journal of Medicinal Chemistry, 2025)
